# Legend:
# [1] = biological target: T1, long isoform of human D2 receptor (Homo sapiens, UniProt P14416); assay: Arrestin Agonist Assay (DRD2L PathHunter CHO-K1 cells, β-arrestin recruitment); conditions: for Emax: CHO-K1, read-out: β-arrestin (agonist mode) Emax
# Method: (§1) Cell Lines: Activities of the compounds were assessed using a Chinese Hamster Ovary (CHO—K1) cell line that recombinantly expressed the long isoform of human D2 receptor (DRD2L PathHunter cells). The D2 receptor DNA sequence was modified to contain a “ProLink” at its C-terminus which allowed complementation with an “enzyme acceptor” (EA)-tagged β-arrestin protein. The recruitment of the O-arrestin by the D2 receptor led to complementation of the ProLink and EA and formation of active β-galactosidase which generated a D2-specific signal that was measured.
# Arrestin Agonist Assay: One day prior to testing, a vial of high density stock of DRD2L PathHunter cells was thawed, and 1×10^7 cells diluted into 40 mL of growth media (Ham's F12/10% HI FBS/1% PSG). 20 μL cells per well were seeded directly into assay plates, and the plates were allowed to rest for 1 h at RT before incubating in a plate incubator overnight.
# 5 μL diluted compound was added to cells in each well, and the assay plate was incubated for 90 min at 37° C. 12.5 μL PathHunter detection reagent was added to each well of the assay plate, which was then covered and incubated for 1 h at RT. The plate was read on an Envision reader using the Luminescence protocol, and the data were exported for analysis.
# (§2) The agonist Emax results were expressed as a percent of the dopamine control response ((measured specific response/control specific agonist response)×100) obtained in the presence of test article. The EC50 values (concentration producing a half-maximal specific response) were determined by non-linear regression analysis of the concentration-response curves.
# [2] = biological target: T1, long isoform of human D2 receptor; assay: cAMP HTRF Agonist Assay (DRD2L PathHunter CHO-K1 cells, forskolin-stimulated); conditions: for Emax: CHO-K1, read-out: cAMP (agonist mode) Emax
# Method: Cell Lines: Activities of the compounds were assessed using a Chinese Hamster Ovary (CHO—K1) cell line that recombinantly expressed the long isoform of human D2 receptor (DRD2L PathHunter cells). The D2 receptor DNA sequence was modified to contain a “ProLink” at its C-terminus which allowed complementation with an “enzyme acceptor” (EA)-tagged β-arrestin protein. The recruitment of the O-arrestin by the D2 receptor led to complementation of the ProLink and EA and formation of active β-galactosidase which generated a D2-specific signal that was measured. The cAMP assay was measured in the same D2-expressing cell line. The D2 receptor inhibited cAMP formation so that the basal levels of cAMP were increased by the addition of an adenylate cyclase stimulator, forskolin.
# cAMP HTRF Agonist Assay: Two days prior to testing, a vial of high density stock of DRD2L PathHunter cells was thawed, and cells were diluted into 10 mL of growth media (Ham's F12/10% HI FBS/1% PSG) and used to seed a T225 flask containing 50 mL of growth media. Cells were cultured for 2 days.
# On the day of the assay, cells were dissociated in 5 mL cell dissociation buffer (enzyme free—Invitrogen) for 10-15 minutes at 37° C. Dissociated cells were diluted with 10 mL of growth media and counted. Cell counts were routinely ˜2×10^7 per T225. Cells were then pelleted at 1500 rpm for 5 min. Supernatant was aspirated, and cells were re-suspended in HBSS/20 mM Hepes, pH 7.4 to a cell density of 1×10^6/mL.
# cAMP levels were determined using the Cisbio HTRF method. HRTF reagents (cAMP-HTRF acceptor fluorophore (d2) conjugate and cryptate-labeled anti-cAMP antibody) were prepared according to maunfacturers instructions. 5 μL of each were added to each well of an assay plate and incubated for 1 h at RT. The plate was then read on an Envision reader using the HTRF protocol, and data were exported for analysis.
# as §2
# [3] = biological target: T1, long isoform of human D2 receptor; assay: Arrestin Antagonist Assay (DRD2L PathHunter CHO-K1 cells, vs EC80 dopamine); conditions: for Emax: CHO-K1, read-out: β-arrestin (antagonist mode) Imax
# Method: as §1
# Arrestin Antagonist Assay: One day prior to testing, a vial of high density stock of DRD2L PathHunter cells was thawed, and 1×10^7 cells diluted into 40 mL of growth media (Ham's F12/10% HI FBS/1% PSG). 20 μL cells per well were seeded directly into assay plates, and the plates were allowed to rest for 1 h at RT before incubating in a plate incubator overnight.
# The plate was incubated for 30 min at 37° C. 15 μL PathHunter detection reagent was added to each well of the assay plate, which was then covered and incubated for 1 h at RT. The plate was read on an Envision reader using the Luminescence protocol, and the data were exported for analysis.
# The IC50 values (concentration producing a half-maximal inhibitory response) were determined by non-linear regression analysis of the concentration-response curves.
# T1 sequence (P14416 whole entry, canonical isoform): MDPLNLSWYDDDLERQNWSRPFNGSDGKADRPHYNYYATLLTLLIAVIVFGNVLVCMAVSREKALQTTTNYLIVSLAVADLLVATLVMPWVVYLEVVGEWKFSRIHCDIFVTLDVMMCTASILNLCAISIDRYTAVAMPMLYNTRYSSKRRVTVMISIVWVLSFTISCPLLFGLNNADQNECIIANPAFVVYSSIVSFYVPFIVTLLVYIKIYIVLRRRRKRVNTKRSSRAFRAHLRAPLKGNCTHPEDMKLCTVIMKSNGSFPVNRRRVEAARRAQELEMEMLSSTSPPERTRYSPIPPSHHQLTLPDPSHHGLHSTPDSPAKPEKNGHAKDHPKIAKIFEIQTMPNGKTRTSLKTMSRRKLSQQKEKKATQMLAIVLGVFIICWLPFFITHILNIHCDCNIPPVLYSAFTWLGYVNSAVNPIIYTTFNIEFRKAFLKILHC
SMILES,EC50 [1] [nM],Emax [1] [%],IC50 [2] [nM],Emax [2] [%],IC50 [3] [nM],Emax [3] [%]
"Cc1ccc2c(c1)CN(CCCCOc1ccc3ccc(=O)[nH]c3n1)CC2 [Compound 65, 7-(4-(7-methyl-3,4-dihydroisoquinolin-2(1H)-yl)butoxy)-1,8-naphthyridin-2(1H)-one]",> 10000,< 10,< 10,10 to 25,10 to 100,> 75
"O=C1CCc2ccc(OCCCCN3CCc4ccccc4C3)nc2N1 [Compound 68, 7-(4-(3,4-dihydroisoquinolin-2(1H)-yl)butoxy)-3,4-dihydro-1,8-naphthyridin-2(1H)-one]",> 10000,< 10,< 10,25 to 50,10 to 100,> 75
"N#Cc1ccc2c(c1)CCN(CCCCOc1ccc3c(n1)NC(=O)CC3)C2 [Compound 73, 2-(4-((7-oxo-5,6,7,8-tetrahydro-1,8-naphthyridin-2-yl)oxy)butyl)-1,2,3,4-tetrahydroisoquinoline-6-carbonitrile]",> 10000,< 10,> 10000,< 10,100 to 1000,> 75
"Cc1cccc(N2CCN(CCCCOc3ccc4cccc(O)c4n3)CC2)c1C [Compound 7, 2-(4-(4-(2,3-dimethylphenyl)piperazin-1-yl)butoxy)quinolin-8-ol]",> 10000,< 10,10 to 100,25 to 50,100 to 1000,> 75
"N#Cc1cccc2c1CCN(CCCCOc1ccc3ccc(=O)[nH]c3n1)C2 [Compound 62, 2-(4-((7-oxo-7,8-dihydro-1,8-naphthyridin-2-yl)oxy)butyl)-1,2,3,4-tetrahydroisoquinoline-5-carbonitrile]",< 10,50 to 75,< 10,> 75,> 10000,< 10
"Oc1cccc2ccc(OCCCCN3CCc4cc(Cl)ccc4C3)nc12 [Compound 14, 2-(4-(6-chloro-3,4-dihydroisoquinolin-2(1H)-yl)butoxy)quinolin-8-ol]",> 10000,< 10,> 10000,< 10,1000 to 10000,> 75
"O=C1CCc2ccc(OCCCCN3CCc4ccsc4C3)cc2N1 [Compound 28, 7-(4-(4,5-dihydrothieno[2,3-c]pyridin-6(7H)-yl)butoxy)-3,4-dihydroquinolin-2(1H)-one]",> 10000,< 10,< 10,10 to 25,100 to 1000,> 75
"O=C1CCc2ccc(OCCCCN3CCc4nn(-c5ccc(F)cc5)cc4C3)cc2N1 [Compound 37, 7-(4-(2-(4-fluorophenyl)-6,7-dihydro-2H-pyrazolo[4,3-c]pyridin-5(4H)-yl)butoxy)-3,4-dihydroquinolin-2(1H)-one]",> 10000,< 10,> 10000,< 10,10 to 100,> 75
"CN(C)c1ncnc2c1CCN(CCCCOc1ccc3c(c1)NC(=O)CC3)C2 [Compound 29, 7-(4-(4-(dimethylamino)-5,6-dihydropyrido[3,4-d]pyrimidin-7(8H)-yl)butoxy)-3,4-dihydroquinolin-2(1H)-one]",100 to 1000,25 to 50,10 to 100,25 to 50,100 to 1000,> 75
"Oc1cccc2ccc(OCCCCN3CCc4ccsc4C3)nc12 [Compound 19, 2-(4-(4,5-dihydrothieno[2,3-c]pyridin-6(7H)-yl)butoxy)quinolin-8-ol]",> 10000,< 10,> 10000,< 10,1000 to 10000,> 75
"N#Cc1ccc2c(c1)CCN(CCCCOc1ccc3cccc(O)c3n1)C2 [Compound 15, 2-(4-((8-hydroxyquinolin-2-yl)oxy)butyl)-1,2,3,4-tetrahydroisoquinoline-6-carbonitrile]",> 10000,< 10,> 10000,< 10,1000 to 10000,> 75
"Clc1ccccc1N1CCN(CCCCOc2ccc3cn[nH]c3c2)CC1 [Compound 97, 6-(4-(4-(2-chlorophenyl)piperazin-1-yl)butoxy)-1H-indazole]",< 10,10 to 25,< 10,50 to 75,10 to 100,50 to 75
"O=C1NCCc2ccc(OCCCCN3CCc4nn(-c5ccccc5)cc4C3)nc2N1 [Compound 89, 8-(4-(2-phenyl-6,7-dihydro-2H-pyrazolo[4,3-c]pyridin-5(4H)-yl)butoxy)-4,5-dihydro-1H-pyrido[2,3-d][1,3]diazepin-2(3H)-one]",10 to 100,25 to 50,10 to 100,25 to 50,10 to 100,50 to 75
"O=C1NCCc2ccc(OCCCCN3CCc4c(Cl)cccc4C3)nc2N1 [Compound 88, 8-(4-(5-chloro-3,4-dihydroisoquinolin-2(1H)-yl)butoxy)-4,5-dihydro-1H-pyrido[2,3-d][1,3]diazepin-2(3H)-one]",10 to 100,25 to 50,< 10,50 to 75,100 to 1000,25 to 50
"Cc1ccccc1N1CCN(CCCCOc2ccc3cn[nH]c3c2)CC1 [Compound 96, 6-(4-(4-(o-tolyl)piperazin-1-yl)butoxy)-1H-indazole]",10 to 100,10 to 25,10 to 100,25 to 50,100 to 1000,> 75
"COc1ccc2c(c1)CCN(CCCCOc1ccc3ccc(=O)[nH]c3n1)C2 [Compound 55, 7-(4-(6-methoxy-3,4-dihydroisoquinolin-2(1H)-yl)butoxy)-1,8-naphthyridin-2(1H)-one]",< 10,10 to 25,< 10,25 to 50,< 10,> 75
"O=c1ccc2ccc(OCCCCN3CCc4cc(Cl)ccc4C3)nc2[nH]1 [Compound 59, 7-(4-(6-chloro-3,4-dihydroisoquinolin-2(1H)-yl)butoxy)-1,8-naphthyridin-2(1H)-one]",> 10000,< 10,< 10,10 to 25,< 10,> 75
"O=C1CCc2ccc(OCCCCN3CCc4nn(-c5cccc(F)c5)cc4C3)cc2N1 [Compound 36, 7-(4-(2-(3-fluorophenyl)-6,7-dihydro-2H-pyrazolo[4,3-c]pyridin-5(4H)-yl)butoxy)-3,4-dihydroquinolin-2(1H)-one]",< 10,> 75,< 10,> 75,> 10000,< 10
"O=C1CCc2ccc(OCCCCN3CCc4ccccc4C3)cc2N1 [Compound 91, 7-(4-(3,4-dihydroisoquinolin-2(1H)-yl)butoxy)-3,4-dihydroquinolin-2(1H)-one]",< 10,10 to 25,< 10,25 to 50,10 to 100,> 75
"N#Cc1cccnc1N1CCN(CCCCOc2cccc(-c3cc[nH]n3)n2)CC1 [Compound 48, 2-(4-(4-((6-(1H-pyrazol-3-yl)pyridin-2-yl)oxy)butyl)piperazin-1-yl)nicotinonitrile]",< 10,25 to 50,< 10,> 75,10 to 100,25 to 50
"O=c1ccc2ccc(OCCCCN3CCc4ccccc4C3)nc2[nH]1 [Compound 52, 7-(4-(3,4-dihydroisoquinolin-2(1H)-yl)butoxy)-1,8-naphthyridin-2(1H)-one]",< 10,10 to 25,< 10,50 to 75,10 to 100,> 75
"COc1ccc(-n2cc3c(n2)CCN(CCCCOc2ccc4c(c2)NC(=O)CC4)C3)cc1 [Compound 39, 7-(4-(2-(4-methoxyphenyl)-6,7-dihydro-2H-pyrazolo[4,3-c]pyridin-5(4H)-yl)butoxy)-3,4-dihydroquinolin-2(1H)-one]",> 10000,< 10,> 10000,< 10,1000 to 10000,> 75
"O=C1CCc2ccc(OCCCCN3CCc4c(cnn4-c4cccc(Cl)c4)C3)cc2N1 [Compound 32, 7-(4-(1-(3-chlorophenyl)-6,7-dihydro-1H-pyrazolo[4,3-c]pyridin-5(4H)-yl)butoxy)-3,4-dihydroquinolin-2(1H)-one]",> 10000,< 10,> 10000,< 10,< 10,> 75
"O=C1CCc2ccc(OCCCCN3CCc4sccc4C3)cc2N1 [Compound 27, 7-(4-(6,7-dihydrothieno[3,2-c]pyridin-5(4H)-yl)butoxy)-3,4-dihydroquinolin-2(1H)-one]",> 10000,< 10,< 10,10 to 25,10 to 100,> 75
"Clc1cccc(N2CCN(CCCCOc3ccc4cn[nH]c4n3)CC2)c1Cl [Compound 1, 6-(4-(4-(2,3-dichlorophenyl)piperazin-1-yl)butoxy)-1H-pyrazolo[3,4-b]pyridine]",> 10000,< 10,< 10,25 to 50,< 10,> 75
"Cc1cccc(N2CCN(CCCCOc3ccc4cn[nH]c4c3)CC2)c1C [Compound 95, 6-(4-(4-(2,3-dimethylphenyl)piperazin-1-yl)butoxy)-1H-indazole]",> 10000,< 10,10 to 100,10 to 25,10 to 100,> 75

# From patent publication US9951088B2, “D2 receptor modulators and methods of use thereof in the treatment of diseases and disorders” (SUNOVION PHARMACEUTICALS INC., priority 2012, dated 2018)
